Data as given in ChEMBL document CHEMBL1130309, “Syntheses and anticancer activity of ribonucleoside analogues containing thio-substituted five-membered heterocyclic base” (Bioorg Med Chem Lett, 1997).

Columns and labels:
[1] = test system: SNB-19; assay: Compound was evaluated in vitro against NCI CNS cancer cell line SNB19; Not active; assay type: functional, cell-based, Homo sapiens
[2] = test system: SNB-19; assay: Compound was evaluated in vitro against NCI CNS cancer cell line SNB19; assay type: functional, cell-based; settings: Homo sapiens

| Structure (SMILES) | IC50 [1] | IC50 [2] [nM] |
| --- | --- | --- |
| Nc1nn([C@@H]2O[C@H](COCc3ccccc3)[C@@H](OCc3ccccc3)[C@H]2OCc2ccccc2)c(=S)s1 | Not Active |  |
| Nc1nn(C2O[C@H](CO)[C@@H](O)[C@H]2O)c(=S)s1 (some centres not stated) |  | 39.4 |
